The values that follow come from ChEMBL document CHEMBL5705888, “Substrate specificity and inhibitors of LRRK2, a protein kinase mutated in Parkinson's disease” (Biochem J, 2009).

The species entered for one experiment is Homo sapiens. As to the kind of experiment: Inhibition of PHK (unknown origin) at 1 uM incubated for 30 mins in presence of [gamma-33P]ATP by multidrop micro reagent based assay relative to control; values are per cent of control.
Experiment [1] has as its target Serine/threonine-protein kinase pim-1 (Homo sapiens) (UniProt P11309). As to the kind of experiment: Inhibition of PIM1 (unknown origin) at 1 uM incubated for 30 mins in presence of [gamma-33P]ATP by multidrop micro reagent based assay relative to control; values are per cent of control.
Experiment [2] has as its target T1, Dual specificity tyrosine-phosphorylation-regulated kinase 3 (Homo sapiens) (UniProt O43781).
T1 sequence (whole entry): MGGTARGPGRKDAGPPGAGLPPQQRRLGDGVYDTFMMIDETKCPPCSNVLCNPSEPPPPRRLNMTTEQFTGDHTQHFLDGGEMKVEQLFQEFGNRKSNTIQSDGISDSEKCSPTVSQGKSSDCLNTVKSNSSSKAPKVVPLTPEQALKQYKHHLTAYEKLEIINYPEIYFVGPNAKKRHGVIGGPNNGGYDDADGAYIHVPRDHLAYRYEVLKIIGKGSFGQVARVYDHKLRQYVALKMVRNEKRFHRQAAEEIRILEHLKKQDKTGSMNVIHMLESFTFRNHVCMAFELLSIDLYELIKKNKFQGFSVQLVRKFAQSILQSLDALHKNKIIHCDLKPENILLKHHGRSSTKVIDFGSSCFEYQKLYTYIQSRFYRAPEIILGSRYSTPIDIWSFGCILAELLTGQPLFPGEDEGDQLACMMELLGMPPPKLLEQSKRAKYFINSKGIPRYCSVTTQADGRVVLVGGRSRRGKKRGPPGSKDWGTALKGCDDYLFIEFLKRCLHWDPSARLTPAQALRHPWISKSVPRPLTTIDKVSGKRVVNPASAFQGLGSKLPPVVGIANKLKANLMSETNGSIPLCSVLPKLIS
The experiment in a line: Inhibition of DYRK3 (unknown origin) at 1 uM incubated for 30 mins in presence of [gamma-33P]ATP by multidrop micro reagent based assay relative to control; values are per cent of control.

Experiment [3] deals with Mitogen-activated protein kinase 9 (Homo sapiens) (UniProt P45984). The experiment in a line: Inhibition of JNK2 (unknown origin) at 1 uM incubated for 30 mins in presence of [gamma-33P]ATP by multidrop micro reagent based assay relative to control; values are per cent of control.
Sequence of Mitogen-activated protein kinase 9 (Homo sapiens) (P45984 whole entry, looked up): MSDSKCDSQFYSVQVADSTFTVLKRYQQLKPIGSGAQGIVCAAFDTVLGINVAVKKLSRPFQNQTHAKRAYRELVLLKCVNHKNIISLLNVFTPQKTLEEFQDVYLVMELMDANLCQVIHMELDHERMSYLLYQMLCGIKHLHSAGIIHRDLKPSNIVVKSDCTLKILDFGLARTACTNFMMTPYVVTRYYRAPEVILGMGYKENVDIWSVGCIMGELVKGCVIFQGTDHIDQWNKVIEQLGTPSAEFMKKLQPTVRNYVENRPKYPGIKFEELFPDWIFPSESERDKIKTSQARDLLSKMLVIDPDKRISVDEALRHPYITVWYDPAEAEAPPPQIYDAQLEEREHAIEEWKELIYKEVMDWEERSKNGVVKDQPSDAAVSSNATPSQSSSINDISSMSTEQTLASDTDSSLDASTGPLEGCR
Experiment [4] has as its target Proto-oncogene tyrosine-protein kinase Src (Homo sapiens) (UniProt P12931). The experiment in a line: Inhibition of Src (unknown origin) at 10 uM incubated for 30 mins in presence of [gamma-33P]ATP by multidrop micro reagent based assay relative to control; values are per cent of control.
For experiment [5], the target named is Receptor tyrosine-protein kinase erbB-4 (Homo sapiens) (UniProt Q15303). The experiment in a line: Inhibition of HER4 (unknown origin) at 10 uM incubated for 30 mins in presence of [gamma-33P]ATP by multidrop micro reagent based assay relative to control; values are per cent of control.
Sequence of Receptor tyrosine-protein kinase erbB-4 (Homo sapiens) (Q15303 whole entry): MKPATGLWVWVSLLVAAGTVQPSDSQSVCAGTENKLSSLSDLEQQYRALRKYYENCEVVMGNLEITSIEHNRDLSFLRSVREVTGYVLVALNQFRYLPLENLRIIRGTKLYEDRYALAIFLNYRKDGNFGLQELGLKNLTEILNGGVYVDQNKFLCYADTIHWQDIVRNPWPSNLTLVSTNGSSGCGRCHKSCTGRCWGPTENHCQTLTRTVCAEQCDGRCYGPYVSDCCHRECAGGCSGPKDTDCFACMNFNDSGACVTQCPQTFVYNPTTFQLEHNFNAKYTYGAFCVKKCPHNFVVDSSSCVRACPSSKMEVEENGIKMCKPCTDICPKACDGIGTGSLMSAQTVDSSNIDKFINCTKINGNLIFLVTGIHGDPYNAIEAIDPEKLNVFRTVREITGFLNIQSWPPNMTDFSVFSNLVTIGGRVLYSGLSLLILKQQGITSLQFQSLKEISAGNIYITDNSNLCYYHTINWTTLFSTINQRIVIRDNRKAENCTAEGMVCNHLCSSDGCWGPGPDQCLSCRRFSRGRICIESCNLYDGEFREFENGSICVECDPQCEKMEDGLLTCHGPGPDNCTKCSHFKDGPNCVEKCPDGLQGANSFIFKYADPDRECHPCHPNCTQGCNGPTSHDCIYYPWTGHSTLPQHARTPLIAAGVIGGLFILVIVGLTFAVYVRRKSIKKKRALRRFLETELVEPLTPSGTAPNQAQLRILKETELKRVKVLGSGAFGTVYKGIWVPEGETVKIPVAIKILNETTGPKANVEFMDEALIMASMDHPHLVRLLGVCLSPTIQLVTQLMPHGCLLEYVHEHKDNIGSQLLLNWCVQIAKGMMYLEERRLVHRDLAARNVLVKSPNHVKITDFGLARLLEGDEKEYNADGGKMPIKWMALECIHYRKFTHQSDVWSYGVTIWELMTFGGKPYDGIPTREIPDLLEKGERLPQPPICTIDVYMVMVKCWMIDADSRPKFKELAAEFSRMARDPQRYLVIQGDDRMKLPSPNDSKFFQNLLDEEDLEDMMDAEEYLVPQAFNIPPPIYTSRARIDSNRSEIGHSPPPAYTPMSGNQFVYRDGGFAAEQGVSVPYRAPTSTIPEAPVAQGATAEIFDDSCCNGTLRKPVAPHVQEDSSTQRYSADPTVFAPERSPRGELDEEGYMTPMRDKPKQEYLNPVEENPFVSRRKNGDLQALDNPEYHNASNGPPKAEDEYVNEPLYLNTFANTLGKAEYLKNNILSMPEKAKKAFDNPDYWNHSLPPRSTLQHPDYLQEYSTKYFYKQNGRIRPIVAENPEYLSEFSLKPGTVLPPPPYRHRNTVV
In experiment [6] the target is T2, Protein kinase C zeta type (Homo sapiens) (UniProt Q05513).
T2 sequence (whole entry): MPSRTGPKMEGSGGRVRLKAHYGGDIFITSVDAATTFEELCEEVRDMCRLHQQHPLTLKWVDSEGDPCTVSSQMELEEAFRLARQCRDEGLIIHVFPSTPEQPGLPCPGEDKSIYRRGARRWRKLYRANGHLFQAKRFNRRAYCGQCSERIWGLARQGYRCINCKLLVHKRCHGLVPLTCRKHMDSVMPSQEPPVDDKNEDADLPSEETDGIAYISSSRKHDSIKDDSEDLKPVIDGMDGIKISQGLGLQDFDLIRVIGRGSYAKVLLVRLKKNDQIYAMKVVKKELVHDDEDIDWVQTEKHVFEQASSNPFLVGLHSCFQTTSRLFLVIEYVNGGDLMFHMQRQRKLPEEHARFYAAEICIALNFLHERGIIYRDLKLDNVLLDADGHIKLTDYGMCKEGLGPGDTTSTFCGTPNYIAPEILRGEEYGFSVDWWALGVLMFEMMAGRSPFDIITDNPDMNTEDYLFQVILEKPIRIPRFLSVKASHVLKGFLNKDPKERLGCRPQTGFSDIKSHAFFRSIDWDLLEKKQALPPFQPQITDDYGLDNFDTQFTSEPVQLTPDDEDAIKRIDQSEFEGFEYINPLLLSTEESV
The experiment in a line: Inhibition of PKCzeta (unknown origin) at 10 uM incubated for 30 mins in presence of [gamma-33P]ATP by multidrop micro reagent based assay relative to control; values are per cent of control.

For experiment [7], the target named is Mitogen-activated protein kinase kinase kinase 9 (Homo sapiens) (UniProt P80192). The experiment in a line: Inhibition of MLK1 (unknown origin) at 10 uM incubated for 30 mins in presence of [gamma-33P]ATP by multidrop micro reagent based assay relative to control; values are per cent of control.
Sequence of Mitogen-activated protein kinase kinase kinase 9 (Homo sapiens) (P80192 whole entry, looked up): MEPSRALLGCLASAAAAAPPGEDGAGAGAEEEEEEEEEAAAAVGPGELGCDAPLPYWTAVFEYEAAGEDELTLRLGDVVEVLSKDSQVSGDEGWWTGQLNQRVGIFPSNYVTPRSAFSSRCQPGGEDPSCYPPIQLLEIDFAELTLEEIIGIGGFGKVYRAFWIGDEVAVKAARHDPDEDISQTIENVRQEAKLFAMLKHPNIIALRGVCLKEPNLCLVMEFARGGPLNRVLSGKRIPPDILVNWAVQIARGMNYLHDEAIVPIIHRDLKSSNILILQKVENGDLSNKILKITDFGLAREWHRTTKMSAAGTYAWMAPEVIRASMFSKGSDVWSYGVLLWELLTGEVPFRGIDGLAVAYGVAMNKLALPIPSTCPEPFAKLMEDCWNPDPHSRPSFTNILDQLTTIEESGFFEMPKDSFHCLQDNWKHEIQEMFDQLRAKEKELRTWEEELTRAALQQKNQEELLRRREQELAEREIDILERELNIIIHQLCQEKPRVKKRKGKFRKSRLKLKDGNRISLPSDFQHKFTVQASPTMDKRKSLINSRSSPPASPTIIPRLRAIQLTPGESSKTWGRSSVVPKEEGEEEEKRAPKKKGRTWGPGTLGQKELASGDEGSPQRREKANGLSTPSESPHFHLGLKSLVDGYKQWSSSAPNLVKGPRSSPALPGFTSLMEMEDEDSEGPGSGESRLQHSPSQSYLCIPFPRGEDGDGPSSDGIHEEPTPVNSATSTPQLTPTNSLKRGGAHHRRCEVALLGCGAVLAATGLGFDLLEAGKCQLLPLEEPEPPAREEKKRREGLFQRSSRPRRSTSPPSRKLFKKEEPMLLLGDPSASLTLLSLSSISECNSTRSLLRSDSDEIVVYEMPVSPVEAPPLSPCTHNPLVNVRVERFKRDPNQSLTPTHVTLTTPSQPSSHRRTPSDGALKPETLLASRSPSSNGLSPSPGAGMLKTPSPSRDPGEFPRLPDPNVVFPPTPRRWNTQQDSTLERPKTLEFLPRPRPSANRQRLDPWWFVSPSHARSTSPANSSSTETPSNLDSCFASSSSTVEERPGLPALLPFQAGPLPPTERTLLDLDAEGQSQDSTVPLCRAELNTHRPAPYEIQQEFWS
The target in experiment [8] is T3, Interleukin-1 receptor-associated kinase 4 (Homo sapiens) (UniProt Q9NWZ3).
T3 sequence (whole entry): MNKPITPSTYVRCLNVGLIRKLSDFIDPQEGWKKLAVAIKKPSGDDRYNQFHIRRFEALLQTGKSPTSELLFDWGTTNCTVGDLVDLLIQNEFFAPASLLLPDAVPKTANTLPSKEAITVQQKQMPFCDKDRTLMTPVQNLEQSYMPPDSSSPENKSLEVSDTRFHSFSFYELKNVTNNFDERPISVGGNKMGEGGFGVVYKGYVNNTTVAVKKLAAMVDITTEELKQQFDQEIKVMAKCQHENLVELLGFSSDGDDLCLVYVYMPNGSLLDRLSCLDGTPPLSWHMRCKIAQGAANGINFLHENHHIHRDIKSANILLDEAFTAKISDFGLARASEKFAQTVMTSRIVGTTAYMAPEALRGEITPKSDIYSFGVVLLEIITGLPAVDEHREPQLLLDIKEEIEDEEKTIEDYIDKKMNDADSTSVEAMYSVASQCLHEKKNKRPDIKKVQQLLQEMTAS
The experiment in a line: Inhibition of IRAK4 (unknown origin) at 10 uM incubated for 30 mins in presence of [gamma-33P]ATP by multidrop micro reagent based assay relative to control; values are per cent of control.

For experiment [9], the target named is Aurora kinase B (Homo sapiens) (UniProt Q96GD4). As to the kind of experiment: Inhibition of Aurora B kinase (unknown origin) at 10 uM incubated for 30 mins in presence of [gamma-33P]ATP by multidrop micro reagent based assay relative to control; values are per cent of control.
Sequence of Aurora kinase B (Homo sapiens) (Q96GD4 whole entry): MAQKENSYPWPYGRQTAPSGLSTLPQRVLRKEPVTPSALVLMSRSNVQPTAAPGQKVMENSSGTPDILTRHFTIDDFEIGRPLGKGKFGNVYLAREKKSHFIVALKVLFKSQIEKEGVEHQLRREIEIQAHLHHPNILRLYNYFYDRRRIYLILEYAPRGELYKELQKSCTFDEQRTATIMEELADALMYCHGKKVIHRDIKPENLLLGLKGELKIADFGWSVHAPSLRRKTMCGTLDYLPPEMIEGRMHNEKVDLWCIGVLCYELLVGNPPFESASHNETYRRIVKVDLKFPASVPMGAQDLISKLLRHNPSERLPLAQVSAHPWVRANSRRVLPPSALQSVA
Experiment [10] concerns the target Serine/threonine-protein kinase Chk2 (Homo sapiens) (UniProt O96017). The experiment in a line: Inhibition of CHK2 (unknown origin) at 10 uM incubated for 30 mins in presence of [gamma-33P]ATP by multidrop micro reagent based assay relative to control; values are per cent of control.

Sequence of Proto-oncogene tyrosine-protein kinase Src (Homo sapiens) (P12931 2-536 limits assumed): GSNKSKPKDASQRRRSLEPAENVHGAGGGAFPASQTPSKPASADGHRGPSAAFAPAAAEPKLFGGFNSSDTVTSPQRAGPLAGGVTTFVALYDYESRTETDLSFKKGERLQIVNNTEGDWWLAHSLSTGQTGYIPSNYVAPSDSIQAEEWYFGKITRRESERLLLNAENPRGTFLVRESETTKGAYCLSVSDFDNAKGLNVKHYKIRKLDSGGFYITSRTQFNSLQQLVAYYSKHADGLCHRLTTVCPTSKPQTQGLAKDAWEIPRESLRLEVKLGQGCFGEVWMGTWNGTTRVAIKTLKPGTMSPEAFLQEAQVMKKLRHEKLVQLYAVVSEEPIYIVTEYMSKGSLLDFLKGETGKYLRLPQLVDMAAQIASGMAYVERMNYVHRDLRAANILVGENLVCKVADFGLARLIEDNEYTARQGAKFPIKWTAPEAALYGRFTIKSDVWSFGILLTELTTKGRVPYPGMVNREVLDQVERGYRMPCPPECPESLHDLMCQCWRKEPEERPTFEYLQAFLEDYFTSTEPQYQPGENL
Sequence of Serine/threonine-protein kinase pim-1 (Homo sapiens) (P11309 whole entry, looked up): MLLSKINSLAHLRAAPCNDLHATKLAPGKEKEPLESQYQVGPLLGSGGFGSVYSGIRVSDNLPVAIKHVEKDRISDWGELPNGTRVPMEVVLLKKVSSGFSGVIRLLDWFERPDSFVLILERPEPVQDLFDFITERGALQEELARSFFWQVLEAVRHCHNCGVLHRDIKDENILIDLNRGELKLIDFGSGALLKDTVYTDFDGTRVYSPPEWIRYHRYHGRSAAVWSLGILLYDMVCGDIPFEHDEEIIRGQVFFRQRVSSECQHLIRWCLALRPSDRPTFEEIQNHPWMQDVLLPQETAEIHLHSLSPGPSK
Sequence of Serine/threonine-protein kinase Chk2 (Homo sapiens) (O96017 whole entry): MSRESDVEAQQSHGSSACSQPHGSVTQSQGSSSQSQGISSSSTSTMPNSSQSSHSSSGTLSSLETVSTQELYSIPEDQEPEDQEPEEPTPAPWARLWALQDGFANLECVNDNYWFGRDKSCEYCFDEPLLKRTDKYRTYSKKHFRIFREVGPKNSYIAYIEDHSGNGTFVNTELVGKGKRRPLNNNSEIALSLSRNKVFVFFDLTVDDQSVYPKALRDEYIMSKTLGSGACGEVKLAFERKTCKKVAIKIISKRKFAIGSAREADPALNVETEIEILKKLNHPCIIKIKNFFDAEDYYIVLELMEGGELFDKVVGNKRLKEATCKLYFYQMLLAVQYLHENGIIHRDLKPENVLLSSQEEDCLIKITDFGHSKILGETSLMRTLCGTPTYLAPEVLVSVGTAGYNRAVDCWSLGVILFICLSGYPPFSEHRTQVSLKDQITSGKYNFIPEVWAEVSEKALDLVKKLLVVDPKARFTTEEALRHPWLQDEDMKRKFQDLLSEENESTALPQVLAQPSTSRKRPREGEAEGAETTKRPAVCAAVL

Take `CC1=C(C(=O)Nc2cc3cn[nH]c3cc2F)C(c2ccc(C(F)(F)F)cc2)CC(=O)N1` (configuration not stated): the residual activity in the experiment listed under Homo sapiens stood at 97%; in experiment [1] it was 89%; in experiment [2] it was 94%; in experiment [3], 101%.

For the compound `C[C@@H](N)[C@H]1CC[C@H](C(=O)Nc2ccncc2)CC1`, the residual activity in [4] worked out at 90%; in experiment [5], 69%; in experiment [6], 69%; in [7] it was 90%; in experiment [8] it was 101%; in experiment [9] it was 79%. Further, in experiment [10], the residual activity was determined as 93%.

As to `O=S(=O)(c1cccc2cnccc12)N1CCCNCC1` [FASUDIL], the residual activity was determined as 120% in experiment [4]; 129% in [5]; 66% in experiment [6]; 56% in [7]; 69% in [8]; 51% in experiment [9]. Also, the residual activity in experiment [10] is 34%.

For the compound `CCn1c(-c2nonc2N)nc2cnc(Oc3cccc(NC(=O)c4ccc(OCCN5CCOCC5)cc4)c3)cc21` [GSK-269962A], the residual activity in experiment [1] was 31%; in experiment [2], 77%; in experiment [3], 101%.

As to `CCN(CC)CCNC(=O)c1c(C)[nH]c(/C=C2\C(=O)Nc3ccc(F)cc32)c1C`, the residual activity in the experiment filed under Homo sapiens was 2%.
